Experimental data taken from patent US6891062B2, “Pharmaceutical composition for treatment of diseases associated with decrease in bone mass” (Ono Pharmaceutical Co., Ltd., priority 1999, dated 2005).

Test system: Beagle/CSK strain dogs
Assay: Promoting action on bone formation: determination of bone area of femur
Assay type: in vivo, dog
Conditions: for bone area: dog femur, 4 weeks
From the text: Beagle/CSK strain dogs of 6-month old were used (n=3 to 6 per group). Into a physical saline solution, each (11 α, 15 α, 13E)-9-oxo-11,15-dihydroxy-16-(3-methoxymethylphenyl)-17,18,19,20-tetranor-5-t hiaprost-13-enoic acid methyl ester (methyl ester of a compound of the formula (IE)) α-cyclodextrin clathrate (containing rate of an active ingredient in α-cyclodextrin clathrate form is 25% w/w), (11 α, 15 α, 13E)-9-oxo-11,15-dihydroxy-16-(3-methoxymethylphenyl)-17,18,19,20-tetranor-3,7-dithiaprost-13-enoic acid (a compound of the formula (IF)), (9β, 11 α, 15 α, 5Z, 13E)-9-chloro-11,15-dihydroxy-16-(3-ethoxymethylphenyl)-17,18,19,20-tetranorpro st-5,13-dienoic acid (a compound of the formula (IG)), (11 α, 15 α, 13E)-9-oxo-11,15-dihydroxy-16-(3-methoxymethylphenyl)-17,18,19,20-tetranorpro st-13-enoic acid (methyl ester of a compound of the formula (IH)), and (11 α, 15 α, 5Z, 13E)-9-oxo-11,15-dihydroxy-16-(3-ethoxymethylphenyl)-17,18,19,20-tetranorprost-5,13-dienoic acid (a compound of the formula (IJ)) was dissolved, and administered continuously to each animal at the effective doses of 2, 5, 10 and 25 μg/kg/day, for 24 hours per day during 4 weeks. Each test solution was administered into femoral vein through holding-catheter at the rate of 0.2 ml/kg/hour. An equal volume of physical saline solution was administered into an animal of the control group. After termination of administration, each animal was sacrificed to carry out autopsy. The separated femur was fixed with 10% buffered formalin solution and then was cut into a round slice with the width of 10 mm vertically to longitudinal axis at the 25 mm central side from trochlea sulcus. Pictures of bone surface near side of epiphysis were taken with camera connected to the computer from the constant distance, and then the resulted digital image was analyzed to determine bone area.

[1] = 5 μg/kg/day continuous into femoral vein

| Structure (SMILES) | bone area [1] [mm^2] | bone area (10 μg/kg/day continuous into femoral vein) [mm^2] | bone area (25 μg/kg/day continuous into femoral vein) [mm^2] | increase of bone area compared with Untreated Group (dog, 25 μg/kg/day) [fold] |
| --- | --- | --- | --- | --- |
| COCc1cccc(C[C@H](O)/C=C/[C@H]2[C@H](O)CC(=O)[C@@H]2SCCCSCC(=O)O)c1 [Invention compound (IF), (11 α, 15 α, 13E)-9-oxo-11,15-dihydroxy-16-(3-methoxymethylphenyl)-17,18,19,20-tetranor-3,7-dithiaprost-13-enoic acid] | 365.29 ± 73.63 |  |  |  |
| CCOCc1cccc(C[C@H](O)/C=C/[C@@H]2[C@@H](C/C=C\CCCC(=O)O)[C@H](Cl)C[C@H]2O)c1 [Invention compound (IG), (9β, 11 α, 15 α, 5Z, 13E)-9-chloro-11,15-dihydroxy-16-(3-ethoxymethylphenyl)-17,18,19,20-tetranorpro st-5,13-dienoic acid] |  | 140.10 ± 28.08 | 289.38 ± 120.50 | 4.2 |
| COCc1cccc(C[C@H](O)/C=C/[C@H]2[C@H](O)CC(=O)[C@@H]2CCCCCCC(=O)O)c1 [Invention compound (IH), (11 α, 15 α, 13E)-9-oxo-11,15-dihydroxy-16-(3-methoxymethylphenyl)-17,18,19,20-tetranorpro st-13-enoic acid] | 362.99 ± 89.56 |  |  |  |
| CCOCc1cccc(C[C@H](O)/C=C/[C@H]2[C@H](O)CC(=O)[C@@H]2C/C=C\CCCC(=O)O)c1 [Invention compound (IJ), (11 α, 15 α, 5Z, 13E)-9-oxo-11,15-dihydroxy-16-(3-ethoxymethylphenyl)-17,18,19,20-tetranorprost-5,13-dienoic acid] | 193.23 ± 11.32 |  |  |  |
